According to patent US20240197715A1, “PHARMACEUTICAL COMBINATIONS AND USES THEREOF” (NOVARTIS AG, priority 2022, published 2024):
Where “and” joins values, the source holds several entries; their conditions need not be identical. Equal values may be shown once.

What was measured:
Type in all cases: in vivo
[1] = system: SHP-77 (CRL-2195, ATCC) MSS small cell lung carcinoma xenografts; test: SHP-77 MSS SCLC xenograft efficacy in nude mice; conditions: SHP77; TMZ 25 mg/kg p.o. 5 consecutive days within 28 days cycle
Description: SHP-77 (CRL-2195, ATCC) is a MSS small cell lung carcinoma (SCLC). It was cultured in RPMI 1640 Medium, GlutaMAX™ (#61870036, GIBCO) supplemented with 10% FCS (#2-O-1F30-I, BioConcept). Cells were passaged by washing first with Dulbecco's PBS without Ca^2+/Mg^2+ (#3-05F29-1, AMIMED), trypsinising cells with Trypsin 0.05% in PBS with EDTA (#5-51F00-H, AMIMED), centrifuging in the respective culture media, and splitting cells into fresh media at a ratio of 1:8, 2 times per week.
Athymic nude mice (Charles River, Germany) were allowed to adapt for 7 days upon arrival at the animal facility and housed in a pathogen-controlled environment (5 mice/Type III cage) with access to food and water ad libitum. Animals were identified with transponders. […]
(§1) Tumor volumes (TVol), determined from caliper measurements (using the formula I*w2*TT/6) were measured two times per week. Tumor response was quantified by the change in tumor volume (endpoint minus starting value in mm^3) as the T/C. In the case of a tumor regression or to assess the percentage of change in TVol, the tumor response was quantified by the percentage of regression of the starting TVol. The body-weight (BW) of the animal was measured three times per week allowing calculation at any particular time-point relative to the day of initiation of treatment (day 0) of the percentage change in BW (4% BW).

[2] = Body weight / tolerability in SW620 tumor-bearing nude mice; conditions: SW620 study; 21-days TMZ cycle
Description: as §1, with “I*w2*π/6)” for “I*w2*TT/6)”, “T/C (the ratio between the tumor volume in the treated group and in the untreated control group).” for “T/C.”

[3] = system: SW620 (CCL-227, ATCC) MSS colorectal carcinoma xenografts; test: SW620 MSS CRC xenograft efficacy in nude mice; conditions: SW620; TMZ p.o. 5 consecutive days within 21 days cycle (100 mg/kg)
Description: SW620 (CCL-227, ATCC) [MSS colorectal carcinoma (CRC)] was cultured in DMEM (#1-26F01-I, AMIMED) supplemented with 10% FCS (#2-0-1F30-I, BioConcept), 4 mM L-glutamine (#5-10K50-H, BioConcept) and 1 mM Sodium pyruvate (#5-60F00-H, BioConcept). Cells were passaged by washing first with Dulbecco's PBS without Ca^2+/Mg^2+ (#3-05F29-1, AMIMED), trypsinising cells with Trypsin 0.05% in PBS with EDTA (#5-51F00-H, AMIMED), centrifuging in the respective culture media, and splitting cells into fresh media at a ratio of 1:8, 2 times per week.
Athymic nude mice (Charles River, Germany) were allowed to adapt for 7 days upon arrival at the animal facility and housed in a pathogen-controlled environment (5 mice/Type III cage) with access to food and water ad libitum. Animals were identified with transponders. Studies described in this report were performed according to procedures covered by a permit number issued by the Kantonales Veterinäramt Basel-Stadt.
Subcutaneous tumors were initiated by injecting 5.0×10^6 SW620 tumor cells in 50% Matrigel (#354234, Corning) in HBSS (#H6648, SIGMA) in the right flank of nude mice. The efficacy experiment (n=6), started 11 days post-cell injection.
Compound A and Temozolomide were made-up fresh on a weekly basis and kept at 4° C. and protected from light. Compound A was dissolved in 20% Hydroxypropyl-ß-Cyclodextrine (HP-ß-CD, #H107-100G, SIGMA) in UltraPure™ Water (#10977-035, Invitrogen) and administered p.o. at 10 ml/kg. Temozolomide was dissolved in 30% PEG-400 (#202398-500G, SIGMA) and 70% Dulbecco's PBS without Ca^2+/Mg^2+ (#3-05F29-1, AMIMED) and administered p.o. at 10 mL/kg on 5 consecutive days within a 21 days cycle. Irinotecan was made-up fresh for each treatment once a week by diluting with NaCl 0.9% (#3-06S00-I, BioConcept). The solution was administered i.v. at 5 mL/kg.
as §1, with “I*w2*π/6)” for “I*w2*TT/6)”, “T/C (the ratio between the tumor volume in the treated group and in the untreated control group).” for “T/C.”
At day 43 post-cell injection, irinotecan was administered intravenously at 15 mg/kg once weekly for 7 weeks in combination with Compound A, also administered from day 43, orally at 120 mg/kg daily for 52 days.
Starting 11 days post-cell injection, temozolomide was administered orally on a 21 day cycle of 5 consecutive days at 100 mg/kg on 5 consecutive days (day 11 to day 15 and day 32 to day 36). At day 43 post-cell injection, to the first group irinotecan was administered intravenously at 15 mg/kg once weekly for 6 weeks, and to the second group irinotecan was administered intravenously at 15 mg/kg once weekly for 6 weeks in combination with Compound A, also administered from day 43, orally at 120 mg/kg daily for 46 days.

[4] = Body weight / tolerability in T84 tumor-bearing nude mice; conditions: T84 study; 28-days TMZ cycle
Description: as §1

[5] = Body weight / tolerability in SHP-77 tumor-bearing nude mice; conditions: SHP-77 study; single agent
Description: as §1

SMILES: Cn1nnc2c(C(N)=O)ncn2c1=O [temozolomide]
- tumor regression after 2 cycles [1]: 90%
- body weight change [2]: dose-dependent body weight loss but mice always recovered at the end of the 21-days cycle
- tumor regression after 1 cycle of temozolomide [3]: 30-50% and 40%
- body weight change [4]: slight body weight loss but mice always recovered at the end of the 28-days cycle
- tolerability [5]: well tolerated
